Assay results as given in publication PMC11801715, “Activating PKC-ε induces HIV expression with improved tolerability” (PLOS Pathogens, 2025).

Key:
PKC-ε = molecular target: T1, PKC-ε (Homo sapiens, UniProt Q02156); assay: PKC isoform translocation in A549-tGFP cells; assay type: cell-based; parameters: host or cells: A549; details: for EC50: A549-tGFP cells, 60 minutes; for ε selectivity, PKC-ε: EC50 of PKC-ε divided by EC50 of PKC-ε
T1 sequence (Q02156 1-737): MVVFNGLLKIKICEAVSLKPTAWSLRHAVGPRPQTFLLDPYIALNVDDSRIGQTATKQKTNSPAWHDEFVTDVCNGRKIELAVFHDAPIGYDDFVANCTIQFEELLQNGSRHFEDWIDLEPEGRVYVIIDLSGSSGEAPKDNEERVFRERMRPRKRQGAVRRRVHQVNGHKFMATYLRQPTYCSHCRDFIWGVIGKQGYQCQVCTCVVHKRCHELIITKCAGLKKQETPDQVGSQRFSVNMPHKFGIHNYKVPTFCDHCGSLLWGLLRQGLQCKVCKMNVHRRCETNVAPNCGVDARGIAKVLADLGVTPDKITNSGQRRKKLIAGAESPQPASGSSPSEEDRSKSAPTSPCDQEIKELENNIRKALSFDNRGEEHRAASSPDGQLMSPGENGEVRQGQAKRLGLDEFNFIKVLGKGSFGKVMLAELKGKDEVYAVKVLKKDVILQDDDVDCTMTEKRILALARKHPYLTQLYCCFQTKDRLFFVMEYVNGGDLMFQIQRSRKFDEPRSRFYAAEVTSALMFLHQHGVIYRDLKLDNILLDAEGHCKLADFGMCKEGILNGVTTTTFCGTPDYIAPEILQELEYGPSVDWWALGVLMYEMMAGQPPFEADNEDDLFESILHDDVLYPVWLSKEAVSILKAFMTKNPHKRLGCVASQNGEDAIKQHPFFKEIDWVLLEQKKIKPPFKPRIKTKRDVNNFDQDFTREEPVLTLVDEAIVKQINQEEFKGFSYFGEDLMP
Description: Using these findings we embarked on new designs for DAG-lactones with additional substituents from the ester moiety in combination with a few olefin substituents. A description of this effort is reported elsewhere.
(§1) Cellular translocation of PKC isoforms upon activation was determined in 8 A549 cell lines, each expressing a single PKC isoform fused to tGFP (PhenoVista Biosciences). Cells were plated in 384-well plates (80 μL/well) at 10^5 cells/mL in RPMI with 10% FBS and rested overnight. PKC agonist(s) were serially diluted at 1:3 steps in DMSO and added to the cells. After 60 minutes in an incubator at 37 °C, 5% CO2, cells were stained with Hoechst-33342 and fixed with 2% paraformaldehyde for 30 minutes at 4 °C. Cells were then stained with wheat germ agglutinin conjugated to AlexaFluor647 (WGA-647) for 10 minutes at 4 °C, washed to remove excess dye and imaged with Cellomics Array Scan (Thermo Fisher) at room temperature (RT). Images were analyzed using Cellomics automated image analysis algorithm. Plasma membrane translocation was quantified using the ratio between the average fluorescence in the areas at the cell edge defined by WGA-647 and the cytoplasm region.

PKC-θ = PKC-θ (Homo sapiens, UniProt Q04759); assay: Immunofluorescence of endogenous PKC in Jurkat cells; assay type: cell-based; details: 30 minutes
Chain of PKC-θ (Q04759 whole entry): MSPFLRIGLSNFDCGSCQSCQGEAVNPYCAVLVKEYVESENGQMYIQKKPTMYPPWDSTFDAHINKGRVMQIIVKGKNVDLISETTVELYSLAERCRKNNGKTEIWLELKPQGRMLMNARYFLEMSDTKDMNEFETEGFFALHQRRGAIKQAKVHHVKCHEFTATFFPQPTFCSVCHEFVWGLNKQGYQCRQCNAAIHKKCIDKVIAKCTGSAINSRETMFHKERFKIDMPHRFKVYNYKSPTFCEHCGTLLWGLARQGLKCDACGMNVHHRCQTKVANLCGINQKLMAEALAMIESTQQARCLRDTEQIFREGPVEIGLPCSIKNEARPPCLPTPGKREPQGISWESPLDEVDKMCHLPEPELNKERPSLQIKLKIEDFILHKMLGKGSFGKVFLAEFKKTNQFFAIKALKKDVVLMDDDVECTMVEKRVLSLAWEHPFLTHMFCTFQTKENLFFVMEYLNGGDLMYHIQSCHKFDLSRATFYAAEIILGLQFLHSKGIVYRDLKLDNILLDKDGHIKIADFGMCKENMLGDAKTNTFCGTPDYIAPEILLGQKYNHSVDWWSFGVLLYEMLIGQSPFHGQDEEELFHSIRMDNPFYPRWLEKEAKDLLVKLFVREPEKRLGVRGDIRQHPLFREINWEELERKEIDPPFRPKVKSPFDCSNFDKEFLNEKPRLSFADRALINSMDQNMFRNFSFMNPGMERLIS
Description: Cells were cultured in RPMI medium supplemented with 10% heat-inactivated FBS and penicillin-streptomycin. For treatment, cells were incubated in either DMSO or C-232A for 30 minutes at 37 °C. Cells were fixed in ice-cold methanol, washed, and blocked with 2% BSA for 60 minutes at RT. Blocked cells were stained with either a 5 μg/mL primary PKC-θ antibody (R&D Systems, catalog MAB4368) or a 1:100 primary PKC-α antibody (R&D Systems, catalog MAB5340SP) in PBS with 1% BSA at 22 °C for 90 minutes. Donkey anti-mouse IgG antibody conjugated with Alexa Fluor 647 (Thermo Fisher Scientific, catalog A-31571) at 2 μg/mL and goat anti-rat IgG H&L antibody conjugated with Alexa Fluor 488 (Abcam, catalog ab150157) were used as secondary antibodies, respectively, in PBS with 1% BSA at 22 °C for 60 minutes. After immunostaining, the cell suspension was mixed (1:1) with ProLong Gold antifade reagent containing DAPI (Life Technologies, catalog P36935) and 5 μL of the mix was applied onto a microscope slide, covered with a coverslip, and cured overnight in the dark at RT. Samples were imaged with a Leica SP8 confocal microscope. Image analysis was performed using ImageJ software.

PKC-α = PKC-α (Homo sapiens, UniProt P17252); assay: PKC isoform translocation in A549-tGFP cells; assay type: cell-based; parameters: host or cells: A549; details: A549-tGFP cells, 60 minutes; read-out: EC50 for PKC-α translocation
Description: A description of this effort is reported elsewhere.
as §1

platelet-rich plasma = assay: Platelet aggregation assay (light transmittance aggregometry); assay type: cell-based, human
Description: Given that C-232A induced DIC in rats and monkeys, we tested whether C-232A could directly induce platelet activation and downstream aggregation. […] Adenosine diphosphate, a known platelet agonist, was used as a positive control (S7A Fig).
Aggregation of platelets was assessed using light transmittance aggregometry using standard methods.
(A) Assay principle for platelet aggregation assay.

[1] = tested on: platelets (CD62P+) and CD4+ T cells (CD69+) in whole blood; assay: In vitro whole blood platelet and CD4+ T-cell activation assay; assay type: cell-based, human; details: for CD62P EC50/CD69 EC50 ratio Geomean: whole blood from healthy donors, platelets to CD4+ T cells
Description: We developed a novel human whole blood assay to determine whether other PKC agonists also activate platelets at the same concentrations that are required to activate CD4^+ T cells. Platelet activation was assessed by CD62P (P-selectin), which traffics to the cell surface upon activation and α-granule release. CD4^+ T-cell activation was assessed by CD69 upregulation (Fig 7A).
Whole blood was drawn into sodium citrate tubes using a 21-gauge needle. To prevent potential interference from tissue thromboplastin released during venipuncture, which could affect the accuracy of coagulation testing, the first 2 mL of blood drawn was discarded. PKC agonist molecules were dispensed in a dilution series into 80 μL of blood per well in a flat-bottom 96-well plate and mixed gently. Care was taken not to introduce any mechanical stress-related activation of platelets. […] The remaining 72 μL of blood in the first plate was incubated for 1 additional hour and stained with anti-human CD3 (UCHT1), CD4 (SK3), and CD69 (FN50) (30 minutes in the dark). Red blood cell lysis and fixing was done using BD lyse/fix solution. Stained cells were acquired on BD LSR Fortessa II after washing. […] EC50 values for platelet and CD4 T-cell activation for each agonist was obtained by nonlinear regression curve fit using GraphPad Prism version 9.3.0.

CD69 on CD4+ T cells = assay: CD69 expression levels in rhesus blood (flow cytometry); assay type: in vivo, rhesus macaque
Description: CD69 protein expression levels in whole blood were measured using flow cytometry. Samples, collected in K2EDTA tubes, were surface stained with anti-human monoclonal antibodies against markers CD3 (UCHT1), CD4 (SK3), and activation marker CD69 (FN50) for 30 minutes at RT. Red blood cells were lysed and cells were fixed (BD Lyse/Fix buffer) according to the manufacturer’s instructions. All data were acquired on an LSR II (BD Biosciences) and were analyzed using FlowJo software.

Compound | EC50 (PKC-ε) [nM] | ε selectivity, PKC-ε (PKC-ε) | translocation of endogenous PKC-θ from cytoplasm to cell edge (PKC-θ) | EC50 (PKC-α) [nM] | relative potency for platelet aggregation (platelet-rich plasma) | platelet aggregation (platelet-rich plasma; dilution series, 20 minutes) | CD62P EC50/CD69 EC50 ratio Geomean [1] | expression of CD69 on CD4+ T cells (CD69 on CD4+ T cells; 1 mg/kg, at peak) [%] | time of peak CD69 expression postdose (CD69 on CD4+ T cells; rhesus monkey, in vivo) [h] | more potent for PKC-ε translocation compared with PKC-η and PKC-θ (PKC-ε; A549-PKC-tGFP reporter cells) | more potent for PKC-ε translocation than PKC-δ (PKC-ε; A549-PKC-tGFP reporter cells) [fold] | platelet aggregation at concentrations below 10 μM (platelet-rich plasma; 20-minute stimulation) | more potent for T-cell activation relative to platelet activation ([1]; whole blood) [fold] | improvement relative to the other classes of PKC agonists tested ([1]; whole blood, T-cell versus platelet potency)
Cc1ccc(C#Cc2ccc3oc(CC(C)(C)C(=O)OCC4(CO)CC(=CCC(CC(C)C)CC(C)C)C(=O)O4)cc3c2)cc1 (stereo not drawn) [C-232A] | 58 | 1 | efficient translocation of endogenous PKC-θ to the plasmalemma | > 39500 | less potent than prostratin | stimulated platelet aggregation | 1.7 | 59 | 4 to 8 | – | – | – | – | –
Cc1ccc(C#Cc2ccc(C(=O)OCC3(CO)Cc4c(-c5ccccc5)ccnc4O3)cc2)cc1 (stereo not drawn) [C-233] | 240 | 1 | – | – | less potent than C-232A and prostratin | – | 5.1 | – | – | 5- to 6 fold | ~200 | little or no aggregation | 5 | 2.4- to 3 fold
